# Results: ChEMBL document CHEMBL1142317, “In vitro antitumor activity of the water soluble copper(I) complexes bearing the tris(hydroxymethyl)phosphine ligand” (J Med Chem, 2008)
# How the values were obtained:
# Type in all cases: functional, cell-based
# HL-60 = assay: Cytotoxicity against human HL60 cells after 48 hrs by MTT assay; settings: HL-60, 48 h
# A549 = assay: Cytotoxicity against human A549 cells after 48 hrs by MTT assay; settings: A549, 48 h
# MCF7 = assay: Cytotoxicity against human MCF7 cells after 48 hrs by MTT assay; settings: MCF7, 48 h
# Daudi = assay: Cytotoxicity against human Daudi cells after 48 hrs by MTT assay
# HepG2 = assay: Cytotoxicity against human HepG2 cells after 48 hrs by MTT assay; settings: HepG2, 48 h
# A-375 = assay: Cytotoxicity against human A375 cells after 48 hrs by MTT assay; settings: A-375, 48 h
# Caco-2 = assay: Cytotoxicity against human CaCo2 cells after 48 hrs by MTT assay; settings: Caco-2, 48 h
# HCT-15 = assay: Cytotoxicity against human HCT15 cells after 48 hrs by MTT assay; settings: HCT-15, 48 h
# HeLa = assay: Cytotoxicity against human HeLa cells after 48 hrs by MTT assay
# LoVo [1] = assay: Cytotoxicity against human LoVo cells after 48 hrs by MTT assay
# LoVo [2] = assay: Cytotoxicity against human multidrug resistant LoVo cells after 48 hrs by MTT assay
SMILES,IC50 (HL-60),IC50 (A549),IC50 (MCF7),IC50 (Daudi),IC50 (HepG2),IC50 (A-375),IC50 (Caco-2),IC50 (HCT-15),IC50 (HeLa),IC50 (LoVo [1]),IC50 (LoVo [2])
OCP(CO)CCP(CO)CO,83.7 µM,> 100 µM,> 100 µM,> 100 µM,71.7 µM,73.2 µM,84.1 µM,91.7 µM,> 100 µM,–,–
COc1cccc2c1C(=O)c1c(O)c3c(c(O)c1C2=O)C[C@@](O)(C(=O)CO)C[C@@H]3O[C@H]1C[C@H](N)[C@H](O)[C@H](C)O1 [DOXORUBICIN],–,–,–,–,–,–,–,–,–,1.46 µM,44.9 µM
OCP(CO)CO [TRIS(HYDROXYMETHYL)PHOSPHINE],68.6 µM,72.9 µM,64.2 µM,> 100 µM,98.7 µM,88.7 µM,> 100 µM,> 100 µM,> 100 µM,–,–
